# System: Mus musculus
# Assay: Antiepileptic potency in the maximal electroshock seizure test. Compound was administered orally to male NMRI mice
# Type: functional
# Settings: po
row,SMILES,ED50
1,CN1C(=O)CC(c2ccccc2)(c2ccccc2)C1=O,357 µmol/kg
2,O=C1CC(c2ccccc2)(c2ccccc2)C(=O)N1,107 µmol/kg
3,CN1C(=O)NC(c2ccccc2)(c2ccccc2)C1=O,149 µmol/kg
4,CC1CC(c2ccccc2)(c2ccccc2)C(=O)N1C (stereo unspecified),3830 µmol/kg
5,O=C1NCNC1(c1ccccc1)c1ccccc1 [DOXENITOIN],129 µmol/kg
6,O=C1NC(=O)C(c2ccccc2)(c2ccccc2)N1 [PHENYTOIN],28 µmol/kg

# From ChEMBL document CHEMBL1122751, “Structure-activity relationships of phenytoin-like anticonvulsant drugs” (1984)
